In brackets after ≈: the same amount, converted by molar mass.
Experiments:
[1] = species: Oryctolagus cuniculus; assay: The compound was evaluated for fall in intraocular pressure (IOP) of Normotensive rabbits after treatment with one drop (50 microL) of a 2% solution at 90 min (pH 6.5); assay type: functional, Eye
[2] = species: Oryctolagus cuniculus; assay: The compound was evaluated for fall in intraocular pressure (IOP) of Normotensive rabbits after treatment with one drop (50 microL) of a 2% solution at 0 min (pH 6.5); assay type: functional, Eye
[3] = target: T1, Carbonic anhydrase 4 (Bos taurus, UniProt Q95323)
T1 sequence (Q95323 whole entry): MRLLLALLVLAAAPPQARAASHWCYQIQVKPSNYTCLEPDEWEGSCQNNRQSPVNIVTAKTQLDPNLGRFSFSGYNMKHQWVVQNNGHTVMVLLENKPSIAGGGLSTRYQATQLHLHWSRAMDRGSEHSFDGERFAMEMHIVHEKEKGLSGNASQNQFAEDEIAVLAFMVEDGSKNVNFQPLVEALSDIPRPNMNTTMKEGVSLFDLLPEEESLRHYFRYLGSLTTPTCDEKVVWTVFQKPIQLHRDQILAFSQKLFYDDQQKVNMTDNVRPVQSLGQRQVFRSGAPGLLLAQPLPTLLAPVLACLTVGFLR
Description: Inhibitory activity against bovine carbonic anhydrase IV (CA4), isolated from bovine lung microsomes

[4] = target: Carbonic anhydrase 1 (Homo sapiens, UniProt P00915)
Description: Inhibitory activity against human recombinant carbonic anhydrase I (CA1)

[5] = species: Oryctolagus cuniculus; assay: The compound was evaluated for fall in intraocular pressure (IOP) of Normotensive rabbits after treatment with one drop (50 microL) of a 2% solution at 60 min (pH 6.5); assay type: functional, Eye
[6] = species: Oryctolagus cuniculus; assay: The compound was evaluated for fall in intraocular pressure (IOP) of Normotensive rabbits after treatment with one drop (50 microL) of a 2% solution at 30 min (pH 6.5); assay type: functional, Eye
[7] = species: Oryctolagus cuniculus; assay: The compound was evaluated for fall in intraocular pressure (IOP) of Normotensive rabbits after treatment with one drop (50 microL) of a 2% solution at 0 min (pH 5.5); assay type: functional, Eye
[8] = species: Oryctolagus cuniculus; assay: The compound was evaluated for fall in intraocular pressure (IOP) of Normotensive rabbits after treatment with one drop (50 microL) of a 2% solution at 30 min (pH 5.5); assay type: functional, Eye
[9] = species: Oryctolagus cuniculus; assay: The compound was evaluated for fall in intraocular pressure (IOP) of Normotensive rabbits after treatment with one drop (50 microL) of a 2% solution at 90 min (pH 5.5); assay type: functional, Eye
[10] = species: Oryctolagus cuniculus; assay: The compound was evaluated for fall in intraocular pressure (IOP) of Normotensive rabbits after treatment with one drop (50 microL) of a 2% solution at 60 min (pH 5.5); assay type: functional, Eye
[11] = octanol/water
Description: Partition coefficient (logD) (chloroform/buffer)

[12] = not given; remark: listed apart in the source
[13] = physchem; conditions: buffer, pH 7.4
[14] = species: Oryctolagus cuniculus; assay: The compound was evaluated for fall in intraocular pressure (IOP) of Normotensive rabbits after treatment with one drop (50 microL) of a 2% solution at 90 min (pH 6.4); assay type: functional, Eye
[15] = species: Oryctolagus cuniculus; assay: The compound was evaluated for fall in intraocular pressure (IOP) of Normotensive rabbits after treatment with one drop (50 microL) of a 2% solution at 0 min (pH 6.4); assay type: functional, Eye
[16] = species: Oryctolagus cuniculus; assay: The compound was evaluated for fall in intraocular pressure (IOP) of Normotensive rabbits after treatment with one drop (50 microL) of a 2% solution at 30 min (pH 6.4); assay type: functional, Eye
[17] = species: Oryctolagus cuniculus; assay: The compound was evaluated for fall in intraocular pressure (IOP) of Normotensive rabbits after treatment with one drop (50 microL) of a 2% solution at 60 min (pH 6.4); assay type: functional, Eye
[18] = species: Oryctolagus cuniculus; assay: The compound was evaluated for fall in intraocular pressure (IOP) of Normotensive rabbits after treatment with one drop (50 microL) of a 2% solution at 30 min (pH 5.6); assay type: functional, Eye
[19] = species: Oryctolagus cuniculus; assay: The compound was evaluated for fall in intraocular pressure (IOP) of Normotensive rabbits after treatment with one drop (50 microL) of a 2% solution at 90 min (pH 5.6); assay type: functional, Eye
[20] = species: Oryctolagus cuniculus; assay: The compound was evaluated for fall in intraocular pressure (IOP) of Normotensive rabbits after treatment with one drop (50 microL) of a 2% solution at 60 min (pH 5.6); assay type: functional, Eye
[21] = species: Oryctolagus cuniculus; assay: The compound was evaluated for fall in intraocular pressure (IOP) of Normotensive rabbits after treatment with one drop (50 microL) of a 2% solution at 0 min (pH 5.6); assay type: functional, Eye

Sequence of Carbonic anhydrase 1 (P00915 whole entry): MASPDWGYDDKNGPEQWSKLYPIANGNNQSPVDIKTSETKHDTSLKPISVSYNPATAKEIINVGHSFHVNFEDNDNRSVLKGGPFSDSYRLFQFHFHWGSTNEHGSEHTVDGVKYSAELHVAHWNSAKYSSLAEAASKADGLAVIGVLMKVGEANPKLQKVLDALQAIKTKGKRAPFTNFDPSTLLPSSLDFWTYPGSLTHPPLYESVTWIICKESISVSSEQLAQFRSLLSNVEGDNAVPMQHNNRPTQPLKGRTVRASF

| Ki [3] [nM] | Ki [4] [nM] | logD [11] | kin [h⁻¹] | kin [12] [h⁻¹] | solubility [13] [mM] | SMILES | Change in IOP [14] [mmHg] | Change in IOP [15] [mmHg] | Change in IOP [16] [mmHg] | Change in IOP [17] [mmHg] | other results |
| --- | --- | --- | --- | --- | --- | --- | --- | --- | --- | --- | --- |
| 43 | 290 |  |  |  |  | CNCC(=O)/N=c1\sc(S(N)(=O)=O)nn1C |  |  |  |  | Change in IOP [1]: 5.5 mmHg; Change in IOP [2]: 0 mmHg; Change in IOP [5]: 6.2 mmHg; Change in IOP [6]: 3.3 mmHg |
| 55 | 350 |  |  |  |  | NCC(=O)Nc1nnc(S(N)(=O)=O)s1 |  |  |  |  | Change in IOP [7]: 0 mmHg; Change in IOP [8]: 2.9 mmHg; Change in IOP [9]: 4.6 mmHg |
| 50 | 350 | 1.569 | 4.6 | 7.9 | 54 (≈ 19.3 mg/mL) | CNCC(=O)Nc1cc(Cl)c(S(N)(=O)=O)cc1S(N)(=O)=O |  |  |  |  | Change in IOP [10]: 5.2 mmHg; Change in IOP [7]: 0 mmHg; Change in IOP [8]: 2.5 mmHg; Change in IOP [9]: 4.5 mmHg |
| 62 | 50 |  |  |  |  | CNCC(=O)Nc1ccc(S(=O)(=O)Nc2ccc(S(N)(=O)=O)cc2)cc1 |  |  |  |  | Change in IOP [1]: 5.5 mmHg; Change in IOP [2]: 0 mmHg; Change in IOP [5]: 6.3 mmHg; Change in IOP [6]: 2.5 mmHg |
| 27 | 75 |  |  |  |  | CCN(C(=O)CN(C)C(=N)N)C1CC(C)S(=O)(=O)c2sc(S(N)(=O)=O)cc21 (stereo unspecified) | 7.6 | 0 | 5 | 9.1 |  |
| 39 | 510 |  |  |  |  | CN(CC(=O)Nc1ccc(S(N)(=O)=O)cc1F)C(=N)N |  |  |  |  | Change in IOP [1]: 5 mmHg; Change in IOP [2]: 0 mmHg; Change in IOP [5]: 7.2 mmHg; Change in IOP [6]: 3 mmHg |

Second part, the compound before the results:

| SMILES | Ki [3] [nM] | Ki [4] [nM] | logD [11] | kin [h⁻¹] | kin [12] [h⁻¹] | solubility [13] [mM] | Change in IOP [14] [mmHg] | Change in IOP [15] [mmHg] | Change in IOP [16] [mmHg] | Change in IOP [17] [mmHg] | other results |
| --- | --- | --- | --- | --- | --- | --- | --- | --- | --- | --- | --- |
| NCC(=O)NCC(=O)Nc1c(S(N)(=O)=O)cc(S(N)(=O)=O)c(Cl)c1Cl | 56 | 500 | 2.133 | 4.8 | 11.5 | 59 (≈ 25.6 mg/mL) | 4.8 | 0 | 3.2 | 7 |  |
| NCC(=O)NCC(=O)NS(=O)(=O)c1nc2ccc(OCCO)cc2s1 | 18 | 9 | 1.85 | 3.1 | 6.4 | 50 (≈ 19.4 mg/mL) | 5.4 | 0 | 3.3 | 7 |  |
| CCN(C(=O)CNC(=O)CN)C1CC(C)S(=O)(=O)c2sc(S(N)(=O)=O)cc21 (stereo unspecified) | 31 | 90 |  |  |  |  | 6.9 | 0 | 4.9 | 8.7 |  |
| NCC(=O)NCCC(=O)Nc1nnc(S(N)(=O)=O)s1 | 10 | 21 |  |  |  |  |  |  |  |  | Change in IOP [10]: 9.3 mmHg; Change in IOP [7]: 0 mmHg; Change in IOP [8]: 5 mmHg; Change in IOP [9]: 8.4 mmHg |
| CCNC1CC(C)S(=O)(=O)c2sc(S(=O)(=O)NC(=O)CNC)cc21 (stereo unspecified) | 30 | 78 | 1.785 | 3.9 | 7.8 | 62 (≈ 24.5 mg/mL) |  |  |  |  | Change in IOP [18]: 3.1 mmHg; Change in IOP [19]: 5.5 mmHg; Change in IOP [20]: 7 mmHg; Change in IOP [21]: 0 mmHg |

— ChEMBL document CHEMBL1132382 (J Med Chem, 1999)
